In patent publication US6582940B1, “Method for producing calcium pantothenate” (Daiichi Fine Chemical Co., Ltd., priority 1998, dated 2003):

Experiment: hygroscopicity analysis (desiccator, relative humidity 82%, 40° C., 24 hours)
Assay type: physicochemical
Conditions: for amount of absorbed moisture: 1 g sample, relative humidity 82% (saturated aqueous potassium chloride), after 24 hours; for deliquescence in the hygroscopicity analysis: relative humidity 82%, 24 hours, macroscopic observation
Description: The term “nondeliquescent” used in the specification means that a substance is nonhygroscopic (in general, an amount of absorbed moisture is 5% or less at 40° C. under 82% of relative humidity after 24 hours), or not suffered from deliquescence by moisture absorption. More specifically, the term means that no deliquescence is macroscopically observed in a part or whole surface of a solid calcium pantothenate at 40° C. under 82% of the relative humidity within 24 hours. The calcium pantothenate of the present invention comprising an amount of a crystalline component sufficient to prevent deliquescence is an example of the nondeliquescent and crystalline calcium pantothenate.
This product was further dried by using a normal-pressure warm-air dryer at 80° C. for 30 minutes and milled in a mortar, and then sized through a filter No.83 and subjected to a hygroscopicity analysis. The sample (1 g) was placed in a desiccator adjusted to relative humidity of 82% with a saturated aqueous solution of potassium chloride at 40° C., and an amount of absorbed moisture after 24 hours was determined. […] An amorphous was dried in the same manner and the amount of absorbed moisture was determined under the same conditions. […] Moreover, the powder X-ray diffraction analysis of the aforementioned product gave the characteristic peak indicated by the arrow, which verified that the product was a crystalline substance containing the monohydrate (FIG. 1).

amount of absorbed moisture	deliquescence in the hygroscopicity analysis	Substance
0.7%	no deliquescence was observed	calcium pantothenate [Example 2]
0.8%	no deliquescence was observed	calcium pantothenate [Example 3]

Substance	amount of absorbed moisture	deliquescence in the hygroscopicity analysis
monocalcium bis[(R)-N-(2,4-dihydroxy-3,3-dimethylbutyryl)-β-alaninate] [amorphous calcium pantothenate, reference compound]	7.0%	macroscopically apparent deliquescence of the surface was observed
